Source: patent US20090325874A1, “Inhibition of inositol 1,4,5-triphosphate receptor calcium channel/cytochrome c interactions and uses thereof” (priority 2008, published 2009)

Experiments:
[1] = tested on: caspase-3 activation in Jurkat cells co-cultured with SW620 cells; assay: Caspase-3 like (DEVDase) activity in Jurkat cells co-cultured with SW620 cells; assay type: cell-based, human; details: for Jurkat cell (lymphocyte) apoptosis induced by co-culture with SW620 cells: summary statement, co-culture with Fas ligand-expressing SW620 colon cancer cells; for caspase-3 activation in Jurkat cells: 24 h co-culture with SW620
Description: (§1) Jurkat T-lymphoma (clone E6-1) and SW620 colon adenocarcinoma cells were purchased and cultured according to the guidelines of American Type Culture Collection (ATCC, Manassas, Va.). SW620 cells grow as adherent monolayers, whereas Jurkat cells grow in suspension. Jurkat cells were co-cultured with SW620 cells by exchanging the culture medium of SW620 cells (80 percent confluent in a 10 cm dish) with 10 ml Jurkat medium containing 1×10^6 Jurkat cells. Co-cultures were incubated for 24 h, after which cell death or caspase activity was determined in Jurkat cells. Pre-loading 1,2-bis(o-aminophenoxy)ethane-N,N,N′,N′-tetraacetic acid (BAPTA) or B-IP3RCYT into Jurkat cells was performed for 30 min at room temperature. Free BAPTA-AM or B-IP3RCYT was removed by media exchange prior to addition to SW620 cells. XestC was similarly pre-incubated with Jurkat cells prior to co-culturing, and remained in the culture medium for the duration of the co-culture experiment.
Caspase activity and cell death were determined specifically in Jurkat cells by removing the medium containing the Jurkat cells into a fresh tube. An additional rinse with culture medium was used to fully recover the Jurkat cells. Adherent SW620 cells remained attached to the culture plate after this rinse as determined by light microscopy. Jurkat cells were pelleted by centrifugation at 1000 g and cell death was determined by propidium iodide staining as described (12). Fluorometric determination of DEVDase (caspase-3 like) activity was performed on lysates prepared from Jurkat cells as described (12, 15).

[2] = tested on: Jurkat cells co-cultured with SW620 cells; assay: Jurkat cell death by propidium iodide staining after co-culture with SW620 cells; assay type: cell-based, human; parameters: dose or concentration left out as unconfirmed; details: XestC pre-incubation, 24 h co-culture
Description: as §1
Caspase activity and cell death were determined specifically in Jurkat cells by removing the medium containing the Jurkat cells into a fresh tube. […] Adherent SW620 cells remained attached to the culture plate after this rinse as determined by light microscopy. Jurkat cells were pelleted by centrifugation at 1000 g and cell death was determined by propidium iodide staining as described (12). […]

Structure (SMILES)	Jurkat cell (lymphocyte) apoptosis induced by co-culture with SW620 cells [1]	caspase-3 activation in Jurkat cells ([1]; 100 and 500 nM BAPTA-AM pre-loaded 30 min, p<0.05 vs no pre-treatment)	caspase-3 activation in Jurkat cells ([1]; XestC 1 to 20 micromolar, pre-incubated and kept in medium)	Jurkat cell death induced by co-culture with SW620 cells [2]
O=C(O)CN(CC(=O)O)c1ccccc1OCCOc1ccccc1N(CC(=O)O)CC(=O)O [BAPTA, 1,2-bis(o-aminophenoxy)ethane-N,N,N′,N′-tetraacetic acid]	dose-dependently inhibited Jurkat cell apoptosis	–	–	–
CC(=O)OCOC(=O)CN(CC(=O)OCOC(C)=O)c1ccccc1OCCOc1ccccc1N(CC(=O)OCOC(C)=O)CC(=O)OCOC(C)=O [BAPTA-AM, aminomethoxy ester form of BAPTA (1,2-bis(o-aminophenoxy)ethane-N,N,N′,N′-tetraacetic acid]	–	Significant attenuation of caspase-3 activation	–	–
C1CCC[C@H]2CCCN3CC[C@@H](CCCCCC[C@@H]4CCCN5CC[C@@H](CC1)O[C@@H]45)O[C@@H]23 [XestC, Xestospongin C]	dose-dependently inhibited Jurkat cell apoptosis	–	inhibited caspase-3 activation	potently blocked Jurkat cell death
